Experimental data as given in US20090030066A1, “SMALL MOLECULES FOR THE PROTECTION OF PANCREATIC CELLS” (priority 2007, published 2009).

Legend:
[1] = test system: STZ-treated mice; assay: Blood glucose and body weight in STZ-treated mice, first experiment (not fasted); type: in vivo; conditions: for Body weight: in g
Procedure: Male C57BL/6 mice (12 weeks old) were housed in a specific pathogen-free facility with a 12-h light/dark cycle and given free access to food and water. Animals weighing between 28-31 g were selected for the experiments. In each group, at the start of experiment the body weight among individual animals differed by less than 1-g.
One group of mice received no treatment over the entire experiment. A second group received only 4.5 mg per kg of CCompound1 on days −2, −1, 0, +1, +2, +3, +4, +5, +6 and +7. A third/fourth/fifth/sixth group of animals were treated i.p. with 210 mg/kg of STZ on day 0. The fourth, fifth, and sixth group of animals also received 4.5 mg per kg each of CCompound1 (CC1; 4th group) or CCompound3 (CC3; 5th group), or CCompound19 (CC19; 6th group) on days −2, −1, 0, +1, +2, +3, +4, +5, +6 and +7 (with STZ treatment given on day 0). Each group consisted of 7 animals. Body weight was measured regularly.
CC compounds were dissolved in physiological saline while STZ was dissolved in 100 mM sodium citrate (pH 4.5). All compounds were injected intraperitoneally in 0.5 ml volume. Control animals were injected physiological saline (0.5 ml) on the same days when other groups were treated with CC compounds.
Blood samples were taken from the eye (canthus) of the animals on days −1, 0, +1, +2, +3, +7 and +10, and glucose concentrations in whole blood samples were immediately measured with the commercially available fast Glucose C test. The animals were not fasted prior to taking the blood samples. The results are expressed as the mean values from 7 animals ±std. dev. (S.D.).

[2] = test system: RINm5F rat islet β-cells; assay: MTT viability of palmitic acid-treated RINm5F islet β-cells; type: cell-based; conditions: for A540 (MTT, relative number of viable cells): 24 h, mean ± S.D. n=8
Source text: In the Examples below, an MTT assay was used to determine the relative number of viable cells after treatments. This calorimetric assay is based on the ability of living cells, but not dead cells, to reduce 3-(4,5-dimethyl thiazol-2-yl)-2,5-diphenyltetrazolium bromide. [Carmichael, J, De Graff, W. G., Gazdar, A. F., Minna, J. D. and Mitchell, J. B. (1987) Evaluation of tetrazolium-based semiautomated calorimetric assay: Assessment of chemosensitivity testing. Cancer Res. 47, 936-942], which is hereby incorporated by reference. For this assay, cells were plated in 96-well plates, and the MTT assay was performed as described in the above article both in untreated and treated cell cultures. The MTT assay also was performed at the time when the treatment was started to allow for assessment of the proliferation and survival rates in the control and treated cell cultures. In the MTT assay, higher values mean proportionally higher numbers of viable cells.
RINm5F rat islet β-cells (ATCC CRL-2058; secondary clone of RIN-m clone secreting only insulin, but no somatostatin or glucagon) were used to determine if CCompound1 could protect them against fatty acid-induced cell death. The medium for propagation: RPMI 1640/10% fetal bovine serum.
Palmitic acid (purchased from Sigma-Aldrich) was dissolved in 200 mM ethanol and then diluted 1:25 with Krebs-Ringer-Hepes buffer containing 20% bovine serum albumin (fraction V, fatty acid-free; from Sigma-Aldrich). The fatty acid mixture was gently agitated at 37° C. under nitrogen overnight. The cells were seeded into 96-well plates at a density of 8,000 cells per well. When the cultures reached 70% confluence, fatty acid or a corresponding amount of albumin and CCompound1 (suspended in the medium) were added to the medium and incubations continued for 24 hours. This was followed by the MTT assay to determine the relative number of viable cells.

[3] = test system: STZ-treated mice; assay: STZ-treated mice, second experiment: body weight to day 80 and survival; type: in vivo; conditions: for survivors: 80th day
Source text: In a second similar experiment performed with 6 mice in each group, the changes in body weight were followed for up to 80 days (when the last STZ-treated mouse died), and survival was followed for up to 100 days.
For the body weight (on the 80th day) and survival the following values were obtained: Untreated (6 survivors), 37.7 g; STZ-treated (one last survivor died on day 80, others survived for 22, 25, 27, 60, 75 days), 26.0 g; CCompound1-treated (6 survivors), 36.0 g; STZ+CCompound1 treated (6 survivors), 33.4 g; STZ+CCompound3-treated (5 survivors; one mouse died on day 78), 32.5 g. At the start of the experiment (day 0), the average body weight ranged from 28.6 to 29.8 g. Accordingly, by day 80, STZ-treated animals that were also treated with CCompound1 and CCompound3 gained about 50% of the weight gained by the untreated animals.

[4] = STZ + compound, 6 mice per group

Cc1c(OCC(O)C[N+](C)(C)C)cc2c(=O)c3ccccc3sc2c1C.[Cl-] (centres unmarked) [CCcompound1, [3-(3,4-Dimethyl-9-oxo-9H-thioxanthen-2-yloxy)-2-hydroxypropyl]trimethyl-ammonium chloride]
effect of compound alone on blood glucose level ([1]; 4.5 mg/kg i.p., no STZ): no effect on blood glucose level
Body weight ([1]; STZ 210 mg/kg + compound 4.5 mg/kg i.p., day 0, unit not given): 28.2 ± 0.7
Body weight ([1]; STZ 210 mg/kg + compound 4.5 mg/kg i.p., day +1, unit not given): 28.0 ± 0.7
Body weight ([1]; STZ 210 mg/kg + compound 4.5 mg/kg i.p., day +2, unit not given): 26.9 ± 0.8
Body weight ([1]; STZ 210 mg/kg + compound 4.5 mg/kg i.p., day +3, unit not given): 26.9 ± 0.5
Body weight ([1]; STZ 210 mg/kg + compound 4.5 mg/kg i.p., day +7, unit not given): 27.1 ± 0.7
Body weight ([1]; STZ 210 mg/kg + compound 4.5 mg/kg i.p., day +10, unit not given): 27.2 ± 0.9
Blood glucose ([1]; STZ 210 mg/kg i.p. day 0 + compound 4.5 mg/kg i.p. days −2 to +7, day 0): 4.1 ± 0.4 mM
Blood glucose ([1]; STZ 210 mg/kg i.p. day 0 + compound 4.5 mg/kg i.p. days −2 to +7, day +1): 5.7 ± 0.5 mM
Blood glucose ([1]; STZ 210 mg/kg i.p. day 0 + compound 4.5 mg/kg i.p. days −2 to +7, day +2): 8.2 ± 1.4 mM
Blood glucose ([1]; STZ 210 mg/kg i.p. day 0 + compound 4.5 mg/kg i.p. days −2 to +7, day +3): 10.1 ± 1.5 mM
Blood glucose ([1]; STZ 210 mg/kg i.p. day 0 + compound 4.5 mg/kg i.p. days −2 to +7, day +7): 10.9 ± 1.2 mM
Blood glucose ([1]; STZ 210 mg/kg i.p. day 0 + compound 4.5 mg/kg i.p. days −2 to +7, day +10): 11.0 ± 0.8 mM
Blood glucose ([1]; STZ 210 mg/kg i.p. day 0 + compound 4.5 mg/kg i.p. days −2 to +7, day −1): 4.6 ± 0.7 mM
protection of islet β-cells ([1]; STZ-induced type 1 diabetes model): protected islet β-cells
effect on STZ-induced rise of blood glucose ([1]; STZ-treated animals, 4.5 mg/kg i.p.): prevent drastic increase in blood glucose level
effect on STZ-induced body weight loss ([1]; STZ-treated mice, to day 10): reduced the effect of STZ on body weight
Blood glucose ([1]; compound alone 4.5 mg/kg i.p. days −2 to +7, no STZ, day 0): 4.5 ± 0.4 mM
Blood glucose ([1]; compound alone 4.5 mg/kg i.p. days −2 to +7, no STZ, day +1): 4.7 ± 0.6 mM
Blood glucose ([1]; compound alone 4.5 mg/kg i.p. days −2 to +7, no STZ, day +2): 4.6 ± 0.4 mM
Blood glucose ([1]; compound alone 4.5 mg/kg i.p. days −2 to +7, no STZ, day +3): 4.7 ± 0.4 mM
Blood glucose ([1]; compound alone 4.5 mg/kg i.p. days −2 to +7, no STZ, day +7): 4.6 ± 0.4 mM
Blood glucose ([1]; compound alone 4.5 mg/kg i.p. days −2 to +7, no STZ, day +10): 4.3 ± 0.6 mM
Blood glucose ([1]; compound alone 4.5 mg/kg i.p. days −2 to +7, no STZ, day −1): 4.5 ± 0.4 mM
Body weight ([1]; compound alone 4.5 mg/kg i.p., no STZ, day 0, unit not printed in table (animals 28-31 g)): 28.2 ± 0.9
Body weight ([1]; compound alone 4.5 mg/kg i.p., no STZ, day +1, unit not given): 28.7 ± 0.4
Body weight ([1]; compound alone 4.5 mg/kg i.p., no STZ, day +2, unit not given): 28.1 ± 0.4
Body weight ([1]; compound alone 4.5 mg/kg i.p., no STZ, day +3, unit not given): 28.7 ± 0.7
Body weight ([1]; compound alone 4.5 mg/kg i.p., no STZ, day +7, unit not given): 29.5 ± 0.8
Body weight ([1]; compound alone 4.5 mg/kg i.p., no STZ, day +10, unit not given): 30.3 ± 1.4
effect on palmitic acid-induced decrease in the number of viable cells ([2]; 5 μM): partially prevented
effect on palmitic acid-induced decrease in the number of viable cells ([2]; 10 μM): almost fully prevented
effect on palmitic acid-induced decrease in the number of viable cells ([2]; 50 μM): added to the inhibitory effect of palmitic acid
A540 (MTT, relative number of viable cells) ([2]; palmitic acid 0.5 mM + compound 5 μM): 1,198 ± 0.086
A540 (MTT, relative number of viable cells) ([2]; palmitic acid 0.5 mM + compound 10 μM): 1,251 ± 0.069
A540 (MTT, relative number of viable cells) ([2]; palmitic acid 0.5 mM + compound 50 μM): 0.836 ± 0.080
weight gained by day 80 relative to the weight gained by the untreated animals ([3]; STZ + compound): about 50%
body weight on the 80th day [3, 4]: 33.4 g
survivors [3, 4]: 6
body weight on the 80th day ([3]; compound alone, no STZ, 6 mice): 36.0 g
survivors ([3]; compound alone, no STZ, 6 mice per group): 6
